# What was measured:
# Experiment in all cases: Further analysis of a plurality of inhibitors and a plurality of kinases (Table 5 inhibition results)
# Type in all cases: biochemical
# Set-up in all cases: scale not given here
# [1] = target: T1, kinases of Table 5 (Homo sapiens, UniProt Q12866); conditions: inhibitor 100 uM; for Inhibition level: kinase MERTK; for Inhibition Results (Level): kinase MERTK (Part II, plate B11, Domain 1)
# T1 sequence (Q12866 21-999): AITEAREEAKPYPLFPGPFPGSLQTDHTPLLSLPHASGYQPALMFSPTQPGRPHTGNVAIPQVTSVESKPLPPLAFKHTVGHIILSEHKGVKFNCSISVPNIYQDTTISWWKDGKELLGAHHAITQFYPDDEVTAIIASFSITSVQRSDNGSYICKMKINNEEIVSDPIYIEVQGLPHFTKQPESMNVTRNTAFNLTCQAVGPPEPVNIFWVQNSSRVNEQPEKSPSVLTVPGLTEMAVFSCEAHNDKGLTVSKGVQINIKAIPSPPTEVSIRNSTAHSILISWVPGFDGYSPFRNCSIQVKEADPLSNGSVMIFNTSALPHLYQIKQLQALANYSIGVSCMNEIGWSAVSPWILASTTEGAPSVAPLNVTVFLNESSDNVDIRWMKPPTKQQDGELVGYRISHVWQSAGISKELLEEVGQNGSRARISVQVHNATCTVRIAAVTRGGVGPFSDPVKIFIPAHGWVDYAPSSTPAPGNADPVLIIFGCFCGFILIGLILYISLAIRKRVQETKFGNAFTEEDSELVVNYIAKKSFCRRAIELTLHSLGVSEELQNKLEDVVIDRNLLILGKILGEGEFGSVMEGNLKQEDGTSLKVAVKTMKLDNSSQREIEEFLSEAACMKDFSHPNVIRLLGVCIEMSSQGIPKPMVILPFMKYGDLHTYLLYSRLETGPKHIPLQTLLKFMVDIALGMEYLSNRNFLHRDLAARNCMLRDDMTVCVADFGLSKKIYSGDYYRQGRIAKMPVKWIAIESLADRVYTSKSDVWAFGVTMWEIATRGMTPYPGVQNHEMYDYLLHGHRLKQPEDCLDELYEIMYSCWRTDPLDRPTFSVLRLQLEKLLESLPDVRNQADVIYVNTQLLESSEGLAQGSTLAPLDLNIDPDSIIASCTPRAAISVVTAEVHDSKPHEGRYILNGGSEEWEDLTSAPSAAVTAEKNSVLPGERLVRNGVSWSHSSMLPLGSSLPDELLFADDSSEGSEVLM
# From the text: (§1) The wash solution is then discarded.
# [2] = target: T2, kinases of Table 5 (Homo sapiens, UniProt Q9UHD2); conditions: kinase TBK1 (Part I, plate G1, Domain 0); inhibitor 100 uM
# T2 sequence (Q9UHD2 1-729): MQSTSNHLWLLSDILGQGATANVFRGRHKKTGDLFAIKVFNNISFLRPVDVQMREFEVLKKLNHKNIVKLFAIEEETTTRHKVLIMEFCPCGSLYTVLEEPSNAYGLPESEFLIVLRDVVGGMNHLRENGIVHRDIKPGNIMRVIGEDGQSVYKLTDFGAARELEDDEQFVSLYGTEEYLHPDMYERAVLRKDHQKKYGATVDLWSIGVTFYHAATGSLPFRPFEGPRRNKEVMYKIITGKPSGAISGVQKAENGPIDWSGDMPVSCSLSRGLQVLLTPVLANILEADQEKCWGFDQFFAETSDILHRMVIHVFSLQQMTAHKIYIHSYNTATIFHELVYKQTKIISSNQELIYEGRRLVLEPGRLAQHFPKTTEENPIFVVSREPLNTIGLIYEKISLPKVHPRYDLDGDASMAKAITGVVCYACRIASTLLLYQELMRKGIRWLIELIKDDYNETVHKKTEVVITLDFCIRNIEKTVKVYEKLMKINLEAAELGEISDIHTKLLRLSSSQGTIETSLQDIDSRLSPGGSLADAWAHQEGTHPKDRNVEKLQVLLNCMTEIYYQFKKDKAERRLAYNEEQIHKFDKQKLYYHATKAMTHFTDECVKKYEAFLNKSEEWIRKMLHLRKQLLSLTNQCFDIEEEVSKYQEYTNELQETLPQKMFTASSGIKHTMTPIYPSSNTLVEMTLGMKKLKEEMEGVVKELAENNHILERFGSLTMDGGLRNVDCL
# From the text: as §1
# [3] = target: T3, kinases of Table 5 (Homo sapiens, UniProt P29323); conditions: kinase EPHB2 (Part I, plate E5, Domain 1)
# T3 sequence (P29323 19-1055): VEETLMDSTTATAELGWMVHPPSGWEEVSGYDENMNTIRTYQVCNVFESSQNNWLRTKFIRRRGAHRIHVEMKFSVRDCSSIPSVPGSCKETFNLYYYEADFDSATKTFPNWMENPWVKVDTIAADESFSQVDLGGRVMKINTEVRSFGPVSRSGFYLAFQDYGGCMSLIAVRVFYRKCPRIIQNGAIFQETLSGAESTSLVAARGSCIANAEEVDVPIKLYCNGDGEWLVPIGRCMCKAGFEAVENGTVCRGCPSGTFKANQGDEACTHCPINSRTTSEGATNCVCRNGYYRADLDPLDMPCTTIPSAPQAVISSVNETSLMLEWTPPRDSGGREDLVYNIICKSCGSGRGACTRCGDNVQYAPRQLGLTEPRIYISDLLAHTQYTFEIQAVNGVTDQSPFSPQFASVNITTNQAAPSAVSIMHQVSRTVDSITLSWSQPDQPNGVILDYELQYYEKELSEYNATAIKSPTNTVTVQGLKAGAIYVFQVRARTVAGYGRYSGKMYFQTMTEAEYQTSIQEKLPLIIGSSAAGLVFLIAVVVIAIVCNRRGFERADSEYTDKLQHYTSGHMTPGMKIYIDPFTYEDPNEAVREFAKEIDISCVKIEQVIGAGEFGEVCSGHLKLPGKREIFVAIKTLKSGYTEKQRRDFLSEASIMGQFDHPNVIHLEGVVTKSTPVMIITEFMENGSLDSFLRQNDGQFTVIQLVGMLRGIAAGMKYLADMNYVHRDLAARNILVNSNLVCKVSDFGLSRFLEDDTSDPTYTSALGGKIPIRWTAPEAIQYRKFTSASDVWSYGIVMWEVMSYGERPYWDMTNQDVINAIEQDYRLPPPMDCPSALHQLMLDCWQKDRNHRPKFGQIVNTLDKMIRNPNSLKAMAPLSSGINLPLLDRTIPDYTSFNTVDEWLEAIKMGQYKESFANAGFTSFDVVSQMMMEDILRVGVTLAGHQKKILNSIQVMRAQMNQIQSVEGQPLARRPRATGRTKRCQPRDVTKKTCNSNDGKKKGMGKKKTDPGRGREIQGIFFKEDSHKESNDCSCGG
# From the text: as §1
Compound,Inhibition level [1],Inhibition Results (Level) [2],Inhibition Results (Level) ([3]; inhibitor 100 uM),Inhibition Results (Level) ([3]; inhibitor <3.7 mM),Inhibition Results (Level) ([3]; inhibitor 90 uM),Inhibition Results (Level) [1]
N#C/C(=C/c1ccc(O)c(O)c1)C(=O)NCc1ccccc1 [AG 490],2,2,2,,,
COc1cc2ncnc(Nc3cccc(Cl)c3)c2cc1OC [AG 1478],2,2,2,,,
O=c1c(-c2ccc(O)cc2)coc2cc(O)cc(O)c12 [Genistein],2,2,2,0,,
O=c1c(O)c(-c2ccc(O)c(O)c2)oc2cc(O)cc(O)c12 [Quercetin],,0,2,,,1
Cn1cc(C2=C(c3cn(CCCSC(=N)N)c4ccccc34)C(=O)NC2=O)c2ccccc21 [Ro-31-8220],2,2,2,,0,
CC(=O)c1c(O)c(C)c(O)c(Cc2c(O)c3c(c(C(=O)/C=C/c4ccccc4)c2O)OC(C)(C)C=C3)c1O [Rottlerin (Mallotoxin)],,1,2,,,2

# Further lines, with some results ahead:
Inhibition level [1],Inhibition Results (Level) [2],Inhibition Results (Level) ([3]; inhibitor 100 uM),Inhibition Results (Level) ([3]; inhibitor <3.7 mM),Inhibition Results (Level) ([3]; inhibitor 90 uM),Compound,Inhibition Results (Level) [1]
,2,2,,,O=S(=O)(NCCNC/C=C/c1ccc(Br)cc1)c1cccc2cnccc12 [H-89],2
2,1,2,,,CC(C)(C)n1nc(-c2ccc(Cl)cc2)c2c(N)ncnc21 [PP2],

# From US20090099029A1, “Methods and substrates for conducting assays” (Invitrogen Corporation, priority 2005, published 2009)
